Test results taken from patent publication US11180474B2 (BRISTOL-MYERS SQUIBB COMPANY, priority 2016, dated 2021).

Legend:
[1] = molecular target: T1, human TLR7 (Homo sapiens, UniProt Q9NYK1); assay: TLR7 inhibition reporter assay (HEK-Blue cells, SEAP reporter, gardiquimod stimulation); format: cell-based; details: HEK-Blue cells overexpressing human TLR7, gardiquimod 7.5 μM
T1 construct: host or cells: HEK-Blue cells
T1 sequence (Q9NYK1 27-1049): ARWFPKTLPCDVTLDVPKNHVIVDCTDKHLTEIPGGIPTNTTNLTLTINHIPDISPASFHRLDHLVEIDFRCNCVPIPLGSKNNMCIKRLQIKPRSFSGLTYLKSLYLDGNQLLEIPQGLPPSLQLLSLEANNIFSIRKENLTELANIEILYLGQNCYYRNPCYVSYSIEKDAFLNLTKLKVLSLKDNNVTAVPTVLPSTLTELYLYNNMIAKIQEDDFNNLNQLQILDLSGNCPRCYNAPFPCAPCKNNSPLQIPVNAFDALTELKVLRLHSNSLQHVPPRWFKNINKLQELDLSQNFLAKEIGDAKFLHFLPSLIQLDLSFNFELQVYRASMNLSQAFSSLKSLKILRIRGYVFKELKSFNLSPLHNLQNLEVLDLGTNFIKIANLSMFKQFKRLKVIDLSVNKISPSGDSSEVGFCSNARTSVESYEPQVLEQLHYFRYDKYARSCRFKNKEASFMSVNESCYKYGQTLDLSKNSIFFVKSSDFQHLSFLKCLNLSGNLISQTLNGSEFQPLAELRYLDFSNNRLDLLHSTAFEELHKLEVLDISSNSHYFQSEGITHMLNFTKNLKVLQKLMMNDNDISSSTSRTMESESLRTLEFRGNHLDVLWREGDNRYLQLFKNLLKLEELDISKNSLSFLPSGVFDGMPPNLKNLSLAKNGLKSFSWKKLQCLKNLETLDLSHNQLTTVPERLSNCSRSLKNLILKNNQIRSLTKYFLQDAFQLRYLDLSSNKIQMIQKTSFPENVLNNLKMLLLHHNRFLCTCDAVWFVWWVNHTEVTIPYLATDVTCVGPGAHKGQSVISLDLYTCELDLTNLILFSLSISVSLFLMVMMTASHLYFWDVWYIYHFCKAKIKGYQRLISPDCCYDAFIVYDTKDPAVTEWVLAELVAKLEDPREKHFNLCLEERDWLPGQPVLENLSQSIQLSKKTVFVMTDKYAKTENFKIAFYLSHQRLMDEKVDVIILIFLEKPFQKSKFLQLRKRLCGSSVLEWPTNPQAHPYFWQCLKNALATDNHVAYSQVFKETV
Procedure, shortened: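 Dose-response testing from 0.05 nM to 50 μM final was done on reporter cells for 22 hours at 37° C. Secreted SEAP was then detected, and inhibition was calculated as percent reduction of the agonist-plus-DMSO signal compared with wells given a known inhibitor.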

[2] = molecular target: T2, human TLR9 (Homo sapiens, UniProt Q9NR96); assay: TLR9 inhibition reporter assay (HEK-Blue cells, SEAP reporter, ODN2006 stimulation); format: cell-based; details: HEK-Blue cells overexpressing human TLR9, ODN2006 5 nM
T2 construct: host or cells: HEK-Blue cells
T2 sequence (Q9NR96 26-1032): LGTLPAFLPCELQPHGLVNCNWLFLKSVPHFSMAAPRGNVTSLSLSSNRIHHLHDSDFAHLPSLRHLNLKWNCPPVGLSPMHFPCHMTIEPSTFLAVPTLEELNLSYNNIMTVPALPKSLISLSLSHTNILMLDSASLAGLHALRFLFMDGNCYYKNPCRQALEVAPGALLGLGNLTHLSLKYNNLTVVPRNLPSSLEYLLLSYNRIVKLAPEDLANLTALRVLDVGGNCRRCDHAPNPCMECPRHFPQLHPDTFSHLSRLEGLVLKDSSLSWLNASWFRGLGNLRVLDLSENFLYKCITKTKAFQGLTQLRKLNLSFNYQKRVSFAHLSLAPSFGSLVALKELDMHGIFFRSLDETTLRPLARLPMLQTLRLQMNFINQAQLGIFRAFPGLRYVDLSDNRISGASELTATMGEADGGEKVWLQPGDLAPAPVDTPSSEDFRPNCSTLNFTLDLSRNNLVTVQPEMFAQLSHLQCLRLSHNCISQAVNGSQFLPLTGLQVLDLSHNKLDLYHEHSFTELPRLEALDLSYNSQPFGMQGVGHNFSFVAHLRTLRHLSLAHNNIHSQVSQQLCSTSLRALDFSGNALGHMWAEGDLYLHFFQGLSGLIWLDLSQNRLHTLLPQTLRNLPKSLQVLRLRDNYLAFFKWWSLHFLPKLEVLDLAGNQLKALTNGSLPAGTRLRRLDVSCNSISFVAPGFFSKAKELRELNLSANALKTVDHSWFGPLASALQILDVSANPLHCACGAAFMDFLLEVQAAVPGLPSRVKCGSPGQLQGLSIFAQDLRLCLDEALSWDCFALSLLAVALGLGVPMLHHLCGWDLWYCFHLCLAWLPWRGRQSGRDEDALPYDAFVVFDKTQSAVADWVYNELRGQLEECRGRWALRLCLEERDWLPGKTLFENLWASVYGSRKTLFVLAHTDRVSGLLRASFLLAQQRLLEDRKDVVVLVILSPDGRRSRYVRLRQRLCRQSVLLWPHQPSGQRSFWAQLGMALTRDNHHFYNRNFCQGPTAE
Procedure, shortened: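 Screening used HEK-Blue cells overexpressing one human TLR (7, 8 or 9) and an IFN-β minimal promoter–NF-κB/AP-1 SEAP construct. Stimulation lasted 22 h at 37 °C with receptor-specific agonist: gardiquimod, R848 or ODN2006 at 7.5 μM, 15.9 μM and 5 nM.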

IC50 [1]	IC50 [2]	Structure (SMILES)
829 nM	313 nM	COc1ccc(-c2[nH]c3ccc(C4CCN(C5CCCN(C)CC5)CC4)cc3c2C)cc1OC (stereo not drawn) [Example 91, 2-(3,4-dimethoxyphenyl)-3-methyl-5-(1-(1-methylazepan-4-yl)piperidin-4-yl)-1H-indole]
903 nM	237 nM	COc1ccc(-c2[nH]c3ccc(C4CCN(C5CCCN(C6CCCC6)CC5)CC4)cc3c2C)cc1OC (stereo not drawn) [Example 93, 5-(1-(1-cyclopentylazepan-4-yl)piperidin-4-yl)-2-(3,4-dimethoxyphenyl)-3-methyl-1H-indole]
1770 nM	195 nM	COc1ccc(-c2[nH]c3ccc(C4CCN(C5CCCN(CC6CC6)CC5)CC4)cc3c2C)cc1OC (stereo not drawn) [Example 94, 5-(1-(1-(cyclopropylmethyl)azepan-4-yl)piperidin-4-yl)-2-(3,4-dimethoxyphenyl)-3-methyl-1H-indole]
819 nM	115 nM	COc1ccc(-c2[nH]c3ccc(C4CCN(C5CCCN(CC(C)C)CC5)CC4)cc3c2C)cc1OC (stereo not drawn) [Example 95, 2-(3,4-dimethoxyphenyl)-5-(1-(1-isobutylazepan-4-yl)piperidin-4-yl)-3-methyl-1H-indole]
931 nM	397 nM	CCN1CCCC(N2CCC(c3ccc4[nH]c(-c5ccc(OC)c(OC)c5)c(C)c4c3)CC2)CC1 (stereo not drawn) [Example 97, 2-(3,4-dimethoxyphenyl)-5-(1-(1-ethylazepan-4-yl)piperidin-4-yl)-3-methyl-1H-indole]
1180 nM	3890 nM	COc1ccc(-c2[nH]c3ccc(C4CCN(C(=O)CNCCC(C)O)CC4)cc3c2C)cc1OC (stereo not drawn) [Example 406, 1-(4-(2-(3,4-dimethoxyphenyl)-3-methyl-1H-indol-5-yl)piperidin-1-yl)-2-((3-hydroxybutyl)amino)ethan-1-one]
12300 nM	11500 nM	COc1ccc(-c2[nH]c3ccc(C4CCN(C(=O)CN5CCC(N(C)C)CC5)CC4)cc3c2C)cc1OC [Example 407, 1-(4-(2-(3,4-dimethoxyphenyl)-3-methyl-1H-indol-5-yl)piperidin-1-yl)-2-(4-(dimethylamino)piperidin-1-yl)ethan-1-one]
898 nM	2000 nM	COc1ccc(-c2[nH]c3ccc(C4CCN(C(=O)CN(C)CCO)CC4)cc3c2C)cc1OC [Example 408, 1-(4-(2-(3,4-dimethoxyphenyl)-3-methyl-1H-indol-5-yl)piperidin-1-yl)-2-((2-hydroxyethyl)(methyl)amino)ethan-1-one]
1010 nM	2350 nM	COc1ccc(-c2[nH]c3ccc(C4CCN(C(=O)CN5CCN(C)CC5)CC4)cc3c2C)cc1OC [Example 409, 1-(4-(2-(3,4-dimethoxyphenyl)-3-methyl-1H-indol-5-yl)piperidin-1-yl)-2-(4-methylpiperazin-1-yl)ethan-1-one]
3860 nM	5250 nM	COc1ccc(-c2[nH]c3ccc(C4CCN(C(=O)CN5CCCN(C)CC5)CC4)cc3c2C)cc1OC [Example 410, 1-(4-(2-(3,4-dimethoxyphenyl)-3-methyl-1H-indol-5-yl)piperidin-1-yl)-2-(4-methyl-1,4-diazepan-1-yl)ethan-1-one]
63 nM	3890 nM	C#CCCCCC(=O)NCCN1CCC(c2ccc3[nH]c(-c4ccc(OC)c(OC)c4)c(C(C)C)c3c2)CC1 [Example 411, N-(2-(4-(2-(3,4-dimethoxyphenyl)-3-isopropyl-1H-indol-5-yl)piperidin-1-yl)ethyl)hept-6-ynamide]
19 nM	247 nM	COc1ccc(-c2[nH]c3ccc(C4CCN(C5CCN(C(C)C)CC5)CC4)cc3c2CC(F)(F)F)cc1OC [Example 412, 2-(3,4-dimethoxyphenyl)-5-(1′-isopropyl-[1,4′-bipiperidin]-4-yl)-3-(2,2,2-trifluoroethyl)-1H-indole]
83 nM	626 nM	CNCCN1CCC(c2ccc3[nH]c(-c4ccc(OC)c(OC)c4)c(CC(F)(F)F)c3c2)CC1 [Example 413, 2-(4-(2-(3,4-dimethoxyphenyl)-3-(2,2,2-trifluoroethyl)-1H-indol-5-yl)piperidin-1-yl)-N-methylethanamine]
58 nM	1170 nM	CNCC(=O)N1CCC(c2ccc3[nH]c(-c4ccc(OC)c(OC)c4)c(CC(F)(F)F)c3c2)CC1 [Example 414, 1-(4-(2-(3,4-dimethoxyphenyl)-3-(2,2,2-trifluoroethyl)-1H-indol-5-yl)piperidin-1-yl)-2-(methylamino)ethanone]
79 nM	1450 nM	CCN(CC)C(=O)C1CCCN(CC(=O)N2CCC(c3ccc4[nH]c(-c5ccc(OC)c(OC)c5)c(CC(F)(F)F)c4c3)CC2)C1 (stereo not drawn) [Example 418, 1-(2-(4-(2-(3,4-dimethoxyphenyl)-3-(2,2,2-trifluoroethyl)-1H-indol-5-yl)piperidin-1-yl)-2-oxoethyl)-N,N-diethylpiperidine-3-carboxamide]
31 nM	2950 nM	COc1ccc(-c2[nH]c3ccc(C4CCN(C(=O)CN5CCCC(C(=O)N(C)C)C5)CC4)cc3c2CC(F)(F)F)cc1OC (stereo not drawn) [Example 419, 1-(2-(4-(2-(3,4-dimethoxyphenyl)-3-(2,2,2-trifluoroethyl)-1H-indol-5-yl)piperidin-1-yl)-2-oxoethyl)-N,N-dimethylpiperidine-3-carboxamide]
66 nM	279 nM	CCN(CC)C(=O)C1CCCN(CC(=O)N2CCC(c3ccc4[nH]c(-c5ccc(OC)c(OC)c5)c(CC(F)(F)F)c4c3)CC2)C1 (stereo not drawn) [Example 420, 1-(2-(4-(2-(3,4-dimethoxyphenyl)-3-(2,2,2-trifluoroethyl)-1H-indol-5-yl)piperidin-1-yl)-2-oxoethyl)-N,N-diethylpiperidine-3-carboxamide]
114 nM	2280 nM	CCN(CC)C(=O)C1CCCN(CC(=O)N2CCC(c3ccc4[nH]c(-c5ccc(OC)c(OC)c5)c(CC(F)(F)F)c4c3)CC2)C1 (stereo not drawn) [Example 421, 1-(2-(4-(2-(3,4-dimethoxyphenyl)-3-(2,2,2-trifluoroethyl)-1H-indol-5-yl)piperidin-1-yl)-2-oxoethyl)-N,N-diethylpiperidine-3-carboxamide]
